US20090143279A1 (priority 2007, published 2009)
Read-outs that look alike come from different tables or passages of the source.

What was measured:
[1] = system: mitochondrial membrane potential; format: cell-based, mouse
reactive oxygen species = format: cell-based, mouse
OXPHOS gene expression = format: cell-based, mouse
nuOXPHOS transcripts = format: cell-based, mouse
mtOXPHOS transcripts = format: cell-based, mouse
cytochrome c = format: cell-based, mouse; settings: for cyt c (composite Z-score): normalized score vs mock-treated (DMSO) wells
cytochrome c, sequence (P62897 whole entry): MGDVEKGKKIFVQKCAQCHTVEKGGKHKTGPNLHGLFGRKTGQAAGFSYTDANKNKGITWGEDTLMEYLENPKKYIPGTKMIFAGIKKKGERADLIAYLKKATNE

[2] = system: cellular dehydrogenase activity
[3] = 20 μM, composite Z-score vs DMSO
[4] = composite Z-score vs mock-treated (DMSO) wells, Conc 20 μM
[5] = composite Z-score vs mock-treated (DMSO) wells, concentration of each compound in μM
[6] = Conc 20 μM, normalized score vs mock-treated (DMSO) wells
[7] = composite Z-score vs DMSO wells, Conc 20 μM
[8] = composite Z-score vs DMSO, Conc 11.16 μM
[9] = composite Z-score vs DMSO, Conc 20 μM

CC(C)C[C@H]1C(=O)N2CCC[C@H]2[C@]2(O)O[C@](NC(=O)[C@@H]3C=C4c5cccc6[nH]c(Br)c(c56)C[C@H]4N(C)C3)(C(C)C)C(=O)N12 [bromocriptine]
ΔΨm [1, 3]: 0.037 | ROS (reactive oxygen species; [3]): 0.176 | GE-HTS (OXPHOS gene expression; [3]): 0.006 | nucOX (nuOXPHOS transcripts; [3]): 0.199 | mitoOX (mtOXPHOS transcripts; [3]): −0.322 | cyt c (cytochrome c; [3]): −0.064 | Viability (C2C12 myotubes; [3]): 1.142 | MTT [2, 3]: −1.667

COC(=O)[C@H](O)[C@H]1C(C)(C)[C@H](OC(C)=O)[C@@H]2CC3=C4CC(=O)O[C@@H](c5ccoc5)[C@]4(C)CC[C@@H]3[C@@]1(C)C2=O [swietenolide-3-acetate]
ΔΨm [1, 4]: 1.006 | ROS (reactive oxygen species; [4]): 0.237 | GE-HTS (OXPHOS gene expression; [4]): −1.057 | nucOX (nuOXPHOS transcripts; [4]): −1.093 | mitoOX (mtOXPHOS transcripts; [4]): −0.838 | cyt c (cytochrome c; [4]): 0.668 | Viability (C2C12 myotubes; [4]): −0.503 | MTT [2, 4]: −0.776

CN[C@H]1C[C@@H](N)[C@H](O)[C@@H](O[C@@H]2O[C@H](CO)[C@H](O)[C@@H]3OC4(O[C@H]23)O[C@H]([C@@H](N)CO)[C@H](O)[C@H](O)[C@H]4O)[C@@H]1O (stereo partly shown) [hygromycin B]
ΔΨm [1, 5]: −0.752 | ROS (reactive oxygen species; [5]): 0.707 | GE-HTS (OXPHOS gene expression; [5]): 0.558 | nucOX (nuOXPHOS transcripts; [5]): 0.800 | mitoOX (mtOXPHOS transcripts; [5]): −0.054 | cyt c (cytochrome c; [5]): −0.478 | Viability (C2C12 myotubes; [5]): −1.526 | MTT [2, 5]: −2.041

C=C1C2CC[C@@]3(C)[C@H](c4ccoc4)OC(=O)C[C@]13O[C@H]1C[C@H](OC(C)=O)C(C)(C)[C@H](CC(=O)OC)[C@@]21C
ΔΨm (composite Z-score) [1, 6]: −0.388 | ROS (composite Z-score) (reactive oxygen species; [6]): −0.319 | GE-HTS (composite Z-score) (OXPHOS gene expression; [6]): 0.772 | nucOX (composite Z-score) (nuOXPHOS transcripts; [6]): 0.446 | mitoOX (composite Z-score) (mtOXPHOS transcripts; [6]): 1.332 | cyt c (composite Z-score) (cytochrome c; Conc 20 μM): −0.069 | Viability (composite Z-score) (C2C12 myotubes; [6]): −0.316 | MTT (composite Z-score) [2, 6]: −0.881

C[C@]12C=CC(=O)C=C1CC[C@@H]1[C@@H]2C(=O)C[C@@]2(C)[C@H]1CC[C@]2(O)C(=O)CO [prednisone]
ΔΨm [1, 7]: 0.258 | ΔΨm [1, 8]: −0.474 | ROS (reactive oxygen species; [7]): 0.253 | ROS (reactive oxygen species; [8]): 0.623 | GE-HTS (OXPHOS gene expression; [7]): −0.290 | GE-HTS (OXPHOS gene expression; [8]): −0.315 | nucOX (nuOXPHOS transcripts; [7]): −0.177 | nucOX (nuOXPHOS transcripts; [8]): −0.432 | mitoOX (mtOXPHOS transcripts; [7]): −0.473 | mitoOX (mtOXPHOS transcripts; [8]): −0.048 | cyt c (cytochrome c; [7]): −0.034 | cyt c (cytochrome c; [8]): −0.428 | Viability (C2C12 myotubes; [7]): −0.474 | Viability (C2C12 myotubes; [8]): −1.668 | MTT [2, 7]: −1.054 | MTT [2, 8]: −1.206

Cc1c(C(=O)O)c(O)cc2c1C(=O)c1c(O)c([C@@H]3O[C@H](CO)[C@@H](O)[C@H](O)[C@H]3O)c(O)c(O)c1C2=O [carminic acid]
ΔΨm [1, 9]: −0.378 | ROS (reactive oxygen species; [9]): 0.083 | GE-HTS (OXPHOS gene expression; [9]): −0.727 | nucOX (nuOXPHOS transcripts; [9]): −0.662 | mitoOX (mtOXPHOS transcripts; [9]): −0.671 | cyt c (cytochrome c; [9]): −0.243 | Viability (C2C12 myotubes; [9]): −0.905 | MTT [2, 9]: −1.295

C[C@H](CCC(=O)O)[C@H]1CC[C@H]2[C@@H]3CC[C@H]4C[C@H](O)CC[C@]4(C)[C@H]3C[C@H](O)[C@]12C [allodeoxycholic acid]
ΔΨm [1, 9]: 0.404 | ROS (reactive oxygen species; [9]): −0.164 | GE-HTS (OXPHOS gene expression; [9]): −0.905 | nucOX (nuOXPHOS transcripts; [9]): −0.903 | mitoOX (mtOXPHOS transcripts; [9]): −0.773 | cyt c (cytochrome c; [9]): −2.903 | Viability (C2C12 myotubes; [9]): −1.161 | MTT [2, 9]: −2.126

N#Cc1c(Cl)c(Cl)c(Cl)c(C#N)c1Cl [tetrachloroisophthalonitrile]
ΔΨm (composite Z-score) [1, 6]: −4.269 | ROS (composite Z-score) (reactive oxygen species; [6]): −3.975 | GE-HTS (composite Z-score) (OXPHOS gene expression; [6]): −3.510 | nucOX (composite Z-score) (nuOXPHOS transcripts; [6]): −3.990 | mitoOX (composite Z-score) (mtOXPHOS transcripts; [6]): −1.780 | cyt c (composite Z-score) (cytochrome c; Conc 20 μM): −5.292 | Viability (composite Z-score) (C2C12 myotubes; [6]): −5.297 | MTT (composite Z-score) [2, 6]: −6.675

Cn1cnc2c1c(=O)[nH]c(=O)n2C [theobromine]
ΔΨm [1, 7]: −0.847 | ROS (reactive oxygen species; [7]): 0.179 | GE-HTS (OXPHOS gene expression; [7]): −0.561 | nucOX (nuOXPHOS transcripts; [7]): −0.449 | mitoOX (mtOXPHOS transcripts; [7]): −0.609 | cyt c (cytochrome c): 0.007 | cyt c (cytochrome c; [7]): −0.026 | Viability (C2C12 myotubes; [7]): −0.264 | MTT [2, 7]: −0.982

C=C1CCC2C(CC2(C)C)C(=O)CCC1O (stereo not shown) [isokobusone]
ΔΨm [1, 9]: −0.283 | ROS (reactive oxygen species; [9]): −0.201 | GE-HTS (OXPHOS gene expression; [9]): −0.848 | nucOX (nuOXPHOS transcripts; [9]): −0.813 | mitoOX (mtOXPHOS transcripts; [9]): −0.713 | cyt c (cytochrome c; [9]): 0.480 | Viability (C2C12 myotubes; [9]): −0.090 | MTT [2, 9]: −0.507

CCc1nc(N)nc(N)c1-c1ccc(Cl)cc1 [pyrimethamine]
ΔΨm [1, 7]: −0.696 | ROS (reactive oxygen species; [7]): 0.329 | GE-HTS (OXPHOS gene expression; [7]): −0.657 | nucOX (nuOXPHOS transcripts; [7]): −0.526 | mitoOX (mtOXPHOS transcripts; [7]): −0.825 | cyt c (cytochrome c): 1.048 | cyt c (cytochrome c; [7]): −0.306 | Viability (C2C12 myotubes; [7]): 0.994 | MTT [2, 7]: −1.810

COc1ccc2c(c1)C1(C)CCC(=O)CC1CC2 (stereo not shown)
ΔΨm (composite Z-score) [1, 6]: −0.939 | ROS (composite Z-score) (reactive oxygen species; [6]): 0.625 | GE-HTS (composite Z-score) (OXPHOS gene expression; [6]): 0.129 | nucOX (composite Z-score) (nuOXPHOS transcripts; [6]): 0.140 | mitoOX (composite Z-score) (mtOXPHOS transcripts; [6]): 0.061 | cyt c (composite Z-score) (cytochrome c; Conc 20 μM): −0.239 | Viability (composite Z-score) (C2C12 myotubes; [6]): −1.914 | MTT (composite Z-score) [2, 6]: −1.993

O=C(O)c1cc([N+](=O)[O-])ccc1NCCCc1ccccc1 [5-nitro-2-phenylpropylaminobenzoic acid]
ΔΨm (composite Z-score vs DMSO) [1]: −0.937 | ROS (composite Z-score vs DMSO) (reactive oxygen species): 0.872 | GE-HTS (composite Z-score vs DMSO) (OXPHOS gene expression): 0.038 | nucOX (composite Z-score vs DMSO) (nuOXPHOS transcripts): 0.089 | mitoOX (composite Z-score vs DMSO) (mtOXPHOS transcripts): −0.075 | cyt c (composite Z-score vs DMSO) (cytochrome c): 0.412 | Viability (composite Z-score vs DMSO) (C2C12 myotubes): −0.939 | MTT (composite Z-score vs DMSO) [2]: −0.786

avocatin B
ΔΨm [1, 5]: 0.024 | ROS (reactive oxygen species; [5]): 1.229 | GE-HTS (OXPHOS gene expression; [5]): −0.935 | nucOX (nuOXPHOS transcripts; [5]): −0.863 | mitoOX (mtOXPHOS transcripts; [5]): −0.852 | cyt c (cytochrome c; [5]): 0.710 | Viability (C2C12 myotubes; [5]): −0.869 | MTT [2, 5]: −1.119

cinnarazine
ΔΨm [1]: 0.544 | ΔΨm (composite Z-score) [1]: −0.711 | ROS (reactive oxygen species): 0.777 | ROS (composite Z-score) (reactive oxygen species): 1.252 | GE-HTS (composite Z-score) (OXPHOS gene expression): 0.362 | nucOX (composite Z-score) (nuOXPHOS transcripts): 0.338 | mitoOX (composite Z-score) (mtOXPHOS transcripts): 0.349 | Viability (C2C12 myotubes): 0.752 | Viability (composite Z-score) (C2C12 myotubes): −0.692 | MTT [2]: −1.003 | MTT (composite Z-score) [2]: −0.009

CC12CCC3c4ccc(OCc5ccccc5)cc4CCC3C1C[C@@H](O)[C@@H]2O (stereo partly shown) [estriol benzyl ether]
ΔΨm (composite Z-score vs DMSO mock-treated wells) [1]: 3.459 | ROS (composite Z-score vs DMSO mock-treated wells) (reactive oxygen species): −0.504 | GE-HTS (composite Z-score, OXPHOS gene expression) (OXPHOS gene expression): −0.114 | nucOX (composite Z-score, nuclear-encoded OXPHOS expression) (nuOXPHOS transcripts): 0.122 | mitoOX (composite Z-score, mtDNA-encoded OXPHOS expression) (mtOXPHOS transcripts): −0.574 | Viability (composite Z-score vs DMSO mock-treated wells) (C2C12 myotubes): 0.551 | MTT (composite Z-score vs DMSO mock-treated wells) [2]: 2.975

Cc1c(O)cc(O)c2c(=O)c(-c3ccc(O)cc3)coc12 [genistein, 8-methyl]
ΔΨm (composite Z-score) [1]: −0.404 | ROS (composite Z-score) (reactive oxygen species): 1.016 | GE-HTS (composite Z-score) (OXPHOS gene expression): 0.247 | nucOX (composite Z-score) (nuOXPHOS transcripts): 0.353 | mitoOX (composite Z-score) (mtOXPHOS transcripts): 0.023 | Viability (composite Z-score) (C2C12 myotubes): −0.071 | MTT (composite Z-score) [2]: −1.035

CC(=O)O[C@@H]1CC2C(C)(C)[C@H](O)C=C[C@]2(C)C2CC[C@@]3(C)[C@H](c4ccoc4)OC(=O)C4OC43[C@@]21C (stereo partly shown) [gedunol]
ΔΨm [1, 4]: 0.897 | ROS (reactive oxygen species; [4]): 0.132 | GE-HTS (OXPHOS gene expression; [4]): −1.545 | nucOX (nuOXPHOS transcripts; [4]): −1.561 | mitoOX (mtOXPHOS transcripts; [4]): −1.174 | Viability (C2C12 myotubes; [4]): 0.438 | MTT [2, 4]: −1.248
